# Results: patent publication US20220002723A1, “METHODS FOR THE TREATMENT OF SMALL ROUND CELL TUMORS” (Board of Regents, The University of Texas System, priority 2018, published 2022)
# Key:
# JN-DSRCT cell line = details: JN-DSRCT cells; at high levels of DHT
# [1] = test system: LNCaP prostate cancer cell line; details: LNCaP cells; at high levels of DHT
# [2] = test system: TC-71 Ewing sarcoma cells; details: TC-71 ES cells, lack AR expression
Structure (SMILES),proliferation on stimulation with AR agonist (JN-DSRCT cell line),proliferation on stimulation with AR agonist [1],proliferation on stimulation with AR agonist [2]
"C[C@]12CCC(=O)C[C@@H]1CC[C@@H]1[C@@H]2CC[C@]2(C)[C@@H](O)CC[C@@H]12 [DHT, 5a-dihydrotestosterone]",increased proliferation,increased proliferation,no effect and not
C[C@]12CC[C@H]3[C@@H](CCC4=CC(=O)CC[C@@]43C)[C@@H]1CC[C@@H]2O [testosterone],increased proliferation,increased proliferation,no effect
